The values that follow come from patent US20090053807A1 (Novo Nordisk A/S, priority 1998, published 2009).

Assay [1] concerns FDC-P2 cells expressing the IL-3 and human IGF-1R receptors. The settings on record: FDC-P2 cells, Table 15; for ED50 Growth: agonist format.
The target of assay [2] is T1, human insulin receptor (HIR) (Homo sapiens, UniProt P06213).
T1 construct: made in house
Description: Insulin receptor binding, competition with 125I-labeled insulin (radio-receptor assay). The settings on record: HIR binding affinity of synthetic peptides.

A further assay has as its system free fat cells. Description: Adipocyte / free fat cell (FFC) assay, 3H glucose incorporation into lipid. The conditions noted are these: for FEC: FFC assay potency.
Where [3] appears, read: number of + grades agonist potency.

“Also recorded” adds a separate entry of the source. Positions of bridges follow the written chain, without caps; N, C: chain ends. Non-standard residues stand in square brackets, D forms with d. Residues, ends and D or L forms follow the SMILES beside them. Chains are numbered I, II in the order given. No end group written: not given here. *: point of attachment. aminooxyacetyl = NOCC(=O)*; Glyoxylyl = O=CC(=O)* A value given as a limit tells only on which side of the number the result lay.

T1 sequence (P06213 28-758 limits assumed): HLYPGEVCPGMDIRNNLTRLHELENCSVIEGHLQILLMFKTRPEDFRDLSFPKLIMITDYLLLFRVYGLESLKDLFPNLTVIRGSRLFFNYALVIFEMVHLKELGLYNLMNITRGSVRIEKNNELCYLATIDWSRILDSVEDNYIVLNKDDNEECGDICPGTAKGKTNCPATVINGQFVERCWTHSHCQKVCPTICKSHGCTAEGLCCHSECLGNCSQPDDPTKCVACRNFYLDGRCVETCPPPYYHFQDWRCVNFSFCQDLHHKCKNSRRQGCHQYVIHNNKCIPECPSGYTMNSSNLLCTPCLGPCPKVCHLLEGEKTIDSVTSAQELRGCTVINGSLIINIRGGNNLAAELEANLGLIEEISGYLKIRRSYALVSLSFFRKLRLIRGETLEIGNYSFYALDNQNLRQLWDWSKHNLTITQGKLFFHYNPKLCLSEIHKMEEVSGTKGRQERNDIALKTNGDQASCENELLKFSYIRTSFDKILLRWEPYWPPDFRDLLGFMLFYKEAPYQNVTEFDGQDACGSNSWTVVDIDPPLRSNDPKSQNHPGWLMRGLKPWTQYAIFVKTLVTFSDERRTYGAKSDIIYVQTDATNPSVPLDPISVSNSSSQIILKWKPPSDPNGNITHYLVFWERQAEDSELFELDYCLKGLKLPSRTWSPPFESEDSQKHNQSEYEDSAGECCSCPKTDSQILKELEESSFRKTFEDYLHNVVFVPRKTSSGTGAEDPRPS
T1 sequence (P06213 763-1382 limits assumed): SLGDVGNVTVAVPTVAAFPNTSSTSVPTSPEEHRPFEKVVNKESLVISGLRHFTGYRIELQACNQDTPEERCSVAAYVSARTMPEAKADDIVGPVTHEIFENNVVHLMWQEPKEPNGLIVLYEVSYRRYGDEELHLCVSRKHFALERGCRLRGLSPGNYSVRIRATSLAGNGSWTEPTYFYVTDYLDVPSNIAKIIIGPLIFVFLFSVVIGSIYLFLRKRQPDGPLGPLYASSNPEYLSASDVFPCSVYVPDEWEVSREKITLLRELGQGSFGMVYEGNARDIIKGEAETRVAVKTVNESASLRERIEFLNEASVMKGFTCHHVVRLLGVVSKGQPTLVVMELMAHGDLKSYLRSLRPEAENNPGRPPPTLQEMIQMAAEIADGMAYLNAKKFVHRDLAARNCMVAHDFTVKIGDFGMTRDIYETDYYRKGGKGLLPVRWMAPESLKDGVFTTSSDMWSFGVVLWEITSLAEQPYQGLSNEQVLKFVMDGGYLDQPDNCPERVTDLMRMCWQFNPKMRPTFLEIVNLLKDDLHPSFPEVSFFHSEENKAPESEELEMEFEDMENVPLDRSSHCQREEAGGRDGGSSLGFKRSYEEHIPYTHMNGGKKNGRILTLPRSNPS

For the compound “WLDQERAWLWCEISGRGCLSGGSGGSGGSGGSGSLDESFYDWFERQLGKK (disulfide 11-18 (inferred)) [D815-RP9 12 aa]”, in assay [1], the “ED50 Growth” value is on record as 10,000 nM and the “Max Action” value was determined as 100%.
`CC(C)C[C@H](NC(=O)[C@@H](N)CCC(N)=O)C(=O)N[C@@H](CCC(=O)O)C(=O)N[C@@H](CCC(=O)O)C(=O)N[C@@H](CCC(=O)O)C(=O)N[C@@H](Cc1c[nH]c2ccccc12)C(=O)N[C@@H](C)C(=O)NCC(=O)N[C@H](C(=O)N[C@@H](CCC(N)=O)C(=O)N[C@H]1CSSC[C@@H](C(=O)N2CCC[C@H]2C(=O)N[C@@H](CO)C(=O)O)NC(=O)[C@H](CCC(=O)O)NC(=O)[C@H](CCCNC(=N)N)NC(=O)CNC(=O)[C@H](Cc2ccc(O)cc2)NC(=O)[C@H](C(C)C)NC(=O)[C@H](CCC(=O)O)NC1=O)C(C)C` [Peptide S226] (HELM PEPTIDE1{Q.L.E.E.E.W.A.G.V.Q.C.E.V.Y.G.R.E.C.P.S}$PEPTIDE1,PEPTIDE1,11:R3-18:R3$$$V2.0; N-terminus and C-terminus assumed; bridges inferred): in assay [2], the affinity, expressed as Kd, was 1.6 µM.
Regarding `CC[C@H](C)[C@@H]1NC(=O)[C@H](CCC(=O)O)NC(=O)[C@@H](NC(=O)[C@H](Cc2c[nH]c3ccccc23)NC(=O)[C@@H](NC(=O)[C@H](Cc2c[nH]c3ccccc23)NC(=O)[C@H](C)NC(=O)[C@H](CCCNC(=N)N)NC(=O)[C@H](CCC(=O)O)NC(=O)[C@H](CCC(N)=O)NC(=O)[C@H](CCC(=O)O)NC(=O)[C@H](CC(C)C)NC(=O)[C@@H](N)Cc2c[nH]c3ccccc23)[C@@H](C)CC)CSSC[C@@H](C(=O)N[C@@H](CCCNC(=N)N)C(=O)N[C@@H](C)C(=O)O)NC(=O)CNC(=O)[C@H](CO)NC(=O)CNC(=O)[C@H](CCC(N)=O)NC1=O` [Peptide S263] (HELM PEPTIDE1{W.L.E.Q.E.R.A.W.I.W.C.E.I.Q.G.S.G.C.R.A}$PEPTIDE1,PEPTIDE1,11:R3-18:R3$$$V2.0; N-terminus and C-terminus assumed; bridges inferred), the FEC in the assay with free fat cells (setting [3]) was 0.
`CC(C)C[C@H](NC(=O)[C@H](CCC(=O)O)NC(=O)[C@H](C)NC(=O)[C@@H](NC(=O)[C@H](Cc1ccccc1)NC(=O)[C@H](Cc1c[nH]c2ccccc12)NC(=O)[C@H](CC(=O)O)NC(=O)[C@H](Cc1ccc(O)cc1)NC(=O)[C@H](Cc1ccccc1)NC(=O)[C@H](CC(N)=O)NC(=O)[C@H](C)NC(=O)[C@H](CC(N)=O)NC(=O)[C@H](CCCNC(=N)N)NC(=O)[C@H](CCC(N)=O)NC(=O)[C@H](CC(C)C)NC(=O)[C@H](Cc1c[nH]c2ccccc12)NC(=O)[C@H](CC(=O)O)NC(=O)[C@@H](NC(=O)[C@H](CCCNC(=N)N)NC(=O)CNC(=O)[C@@H](N)CNC(=O)CON)C(C)C)C(C)C)C(=O)NCC(N)=O` [Peptide S245]: the FEC entry with free fat cells (setting [3]) was “+”.
“S453: Site 1-Site 2 heterodimer, C-N linkage (GSLDESFYDWFERQLGKKK[Glyoxylyl][Glyoxylyl]KEWLDQEWAWVQCEVYGRGCPSEE; disulfide 34-41 (inferred); not fully specified (residue 20, bridges); printed as GSLDESFYDWFERQLGKKK-Ald-17-Ald-KEWLDQ EWAWVQCEVYGRGCPSEE; also: Site 1-Site 2 heterodimer, C-N linkage via linker 17) [Peptide S453]”: the “activity in the FFC assay / at IR” value in the assay on free fat cells is “antagonist activity; also recorded: antagonist properties”.
As to `CC[C@@H](C)[C@@H](NC(=O)[C@H](CCC(=O)O)NC(=O)[C@H](CC(=O)O)NC(=O)[C@H](Cc1ccccc1)NC(=O)[C@H](Cc1c[nH]c2ccccc12)NC(=O)[C@H](CC(=O)O)NC(=O)[C@H](Cc1ccc(O)cc1)NC(=O)[C@H](Cc1ccccc1)NC(=O)[C@H](CCC(=O)O)NC(=O)C(C)(C)NC(=O)[C@H](CC(=O)O)NC(=O)C1(NC(=O)[C@@H](N)CC(=O)O)Cc2ccccc2C1)C(=O)N1CCC[C@H]1C(=O)N[C@H](CCC(N)=O)C(N)=O` [Peptide S319] (HELM PEPTIDE1{D.[O=C(C1(N[*:1])Cc2ccccc2C1)[*:2]].D.[Aib].E.F.Y.D.W.F.D.E.[dI].P.[dQ].[am]}$$$$V2.0), the FEC with free fat cells (setting [3]) stood at 0.
On to `CC(C)[C@H](NC(=O)[C@H](Cc1ccccc1)NC(=O)[C@H](Cc1c[nH]c2ccccc12)NC(=O)[C@H](CC(=O)O)NC(=O)[C@H](Cc1ccc(O)cc1)NC(=O)[C@H](Cc1ccccc1)NC(=O)[C@H](CC(N)=O)NC(=O)[C@H](CCC(=O)O)NC(=O)[C@H](Cc1c[nH]cn1)NC(=O)[C@@H](N)Cc1ccccc1)C(=O)N[C@@H](CCCNC(=N)N)C(=O)N[C@@H](CCC(N)=O)C(=O)N[C@H](C(=O)N[C@@H](CO)C(=O)N[C@@H](CCCCN)C(=O)N[C@@H](CCCCN)C(=O)N[C@@H](CNC(=O)CON)C(N)=O)C(C)C` [Peptide S131], for which the FEC entry in the assay with free fat cells (setting [3]) was “+”.
For the compound SLNFYDALQLLAKK [Peptide S119], the Kd in assay [2] was found to be 1.8 µM.
On to “WLDQERAWLWCEISGRGCLSGGSGGSGSLDESFYDWFERQLGKK (disulfide 11-18 (inferred)) [D815-RP9 6 aa]”, for which, in assay [1], the “ED50 Growth” value is 50 nM and the “Max Action” value was >50%.
Take “S326 (GIISQSCPESFYDWFAGQVSDPWWCW) [Peptide S326]”: the FEC result in the assay with free fat cells (setting [3]) is on record as “−”.
On the same count and under the same terms, as for `CC[C@@H](C)[C@@H](NC(=O)[C@H](CCC(=O)O)NC(=O)[C@H](CC(=O)O)NC(=O)[C@H](Cc1ccccc1)NC(=O)[C@H](Cc1c[nH]c2ccccc12)NC(=O)[C@H](CC(=O)O)NC(=O)[C@H](Cc1ccc(O)cc1)NC(=O)[C@H](Cc1ccccc1)NC(=O)[C@@H]1C[C@@H](O)CN1C(=O)[C@H](CC(=O)O)NC(=O)[C@H](CCCNC(=N)N)NC(=O)[C@H](Cc1c[nH]c2ccccc12)NC(=O)[C@@H](N)CCC(=O)O)C(=O)N1C[C@H](O)C[C@H]1C(=O)N[C@H](CCC(=O)O)C(N)=O` [Peptide S322] (HELM PEPTIDE1{E.W.R.D.[Hyp].F.Y.D.W.F.D.E.[dI].[Hyp].[dE].[am]}$$$$V2.0), the figure is 0.
With (ESFYDWFERQLGK)2-23 [Peptide S415], in the assay on free fat cells, the “activity in the FFC assay / at IR” value is “highly potent”.
As to GSLDESFYDWFERQL [Peptide S395], the Kd in assay [2] was found to be 0.081 µM.
The same measure, in the same setting: as for HDPFYSMMKSLLK [Peptide S120], the figure is 2 µM.
For “S419 (chain 1 K(aminooxyacetyl)EWLDQEWAWVQCEVYGRGCPSEE; chain 2 K(aminooxyacetyl)EWLDQEWAWVQCEVYGRGCPSEE; disulfide I:13-I:20, II:13-II:20 (inferred); not fully specified (bridges); also: dimer, the two chains joined N-terminus to N-terminus through linker 14 at the side chain of residue 1) [Peptide S419]”, the FEC in the assay with free fat cells (setting [3]) worked out at 0.
As for `CC(C)C[C@@H]1NC(=O)[C@H](CO)NC(=O)[C@H](C)NC(=O)CNC(=O)[C@H](Cc2c[nH]c3ccccc23)NC(=O)[C@H](Cc2ccccc2)NC(=O)[C@H](CC(C)C)NC(=O)[C@H](CCC(=O)O)NC(=O)[C@H](CCC(=O)O)NC(=O)[C@H](CC(C)C)NC(=O)[C@H](C(C)C)NC(=O)[C@@H](NC(=O)[C@H](CC(C)C)NC(=O)[C@H](Cc2c[nH]cn2)NC(=O)[C@@H](N)CCCCN)CSSC[C@@H](C(=O)N[C@@H](CO)C(=O)NCC(=O)N[C@@H](CCCCN)C(=O)N[C@@H](CCCCN)C(N)=O)NC(=O)[C@H](Cc2ccc(O)cc2)NC(=O)CNC(=O)[C@H](Cc2ccccc2)NC1=O` [Peptide S331] (HELM PEPTIDE1{K.H.L.C.V.L.E.E.L.F.W.G.A.S.L.F.G.Y.C.S.G.K.K.[am]}$PEPTIDE1,PEPTIDE1,4:R3-19:R3$$$V2.0), the FEC with free fat cells (setting [3]) was 0.
On the same count and under the same terms, as for `CC(C)C[C@@H]1NC(=O)[C@H](CO)NC(=O)[C@H](C)NC(=O)CNC(=O)CNC(=O)[C@H](Cc2ccccc2)NC(=O)[C@H](CC(C)C)NC(=O)[C@H](CCC(=O)O)NC(=O)[C@H](CCC(N)=O)NC(=O)[C@H](CC(C)C)NC(=O)[C@H](Cc2ccccc2)NC(=O)[C@@H](NC(=O)[C@H](CC(C)C)NC(=O)[C@@H]2CCCN2)CSSC[C@@H](C(=O)N[C@@H](CO)C(=O)NCC(=O)O)NC(=O)[C@H](Cc2ccc(O)cc2)NC(=O)CNC(=O)CNC1=O` [Peptide S262] (HELM PEPTIDE1{P.L.C.F.L.Q.E.L.F.G.G.A.S.L.G.G.Y.C.S.G}$PEPTIDE1,PEPTIDE1,3:R3-18:R3$$$V2.0; N-terminus and C-terminus assumed; bridges inferred), the figure is 0.
As for `CC(C)C[C@H](NC(=O)[C@H](CCC(N)=O)NC(=O)[C@H](CCCNC(=N)N)NC(=O)[C@H](CCC(=O)O)NC(=O)[C@H](Cc1ccccc1)NC(=O)[C@H](Cc1c[nH]c2ccccc12)NC(=O)[C@H](CC(=O)O)NC(=O)[C@H](Cc1ccc(O)cc1)NC(=O)[C@H](Cc1ccccc1)NC(=O)[C@H](CO)NC(=O)[C@H](CCC(=O)O)NC(=O)[C@H](CC(=O)O)NC(=O)[C@H](CC(C)C)NC(=O)[C@H](CO)NC(=O)CNC(=O)CNC(=O)[C@H](CO)NC(=O)[C@@H]1CSSC[C@H](NC(=O)[C@H](CC(C)C)NC(=O)[C@@H](N)Cc2c[nH]cn2)C(=O)N[C@@H](C(C)C)C(=O)N[C@@H](CC(C)C)C(=O)N[C@@H](CCC(=O)O)C(=O)N[C@@H](CCC(=O)O)C(=O)N[C@@H](CC(C)C)C(=O)N[C@@H](Cc2ccccc2)C(=O)N[C@@H](Cc2c[nH]c3ccccc23)C(=O)NCC(=O)N[C@@H](C)C(=O)N[C@@H](CO)C(=O)N[C@@H](CC(C)C)C(=O)N[C@@H](Cc2ccccc2)C(=O)NCC(=O)N[C@@H](Cc2ccc(O)cc2)C(=O)N1)C(=O)O` [Peptide S521] (HELM PEPTIDE1{H.L.C.V.L.E.E.L.F.W.G.A.S.L.F.G.Y.C.S.G.G.S.L.D.E.S.F.Y.D.W.F.E.R.Q.L}$PEPTIDE1,PEPTIDE1,3:R3-18:R3$$$V2.0; N-terminus and C-terminus assumed; bridges inferred), the FEC entry in the assay with free fat cells (number of + grades agonist activity) is “+”.
In the case of `CC[C@@H](C)[C@@H](NC(=O)[C@H](CCC(=O)O)NC(=O)[C@H](CC(=O)O)NC(=O)[C@H](Cc1ccccc1)NC(=O)[C@H](Cc1c[nH]c2ccccc12)NC(=O)[C@H](CC(=O)O)NC(=O)[C@H](Cc1ccc(O)cc1)NC(=O)[C@H](Cc1ccccc1)NC(=O)[C@@H]1C[C@@H](O)CN1C(=O)[C@H](CC(=O)O)NC(=O)[C@H](CCCNC(=N)N)NC(=O)[C@@H](CCC(=O)O)NC(=O)[C@@H](N)Cc1ccc(O)cc1)C(=O)NCC(=O)NCC(N)=O` [Peptide S321], in the assay on free fat cells (setting [3]), the FEC came to 0.
